Assay results reported in patent US7112318B2, “Non-invasive diagnostic imaging technology for mitochondria dysfunction using radiolabeled lipophilic salts” (The Johns Hopkins University, priority 2002, dated 2006).
Values joined by “and” are separate entries in the source; they are usually repeats but may differ in a detail not shown here. Equal entries are not always repeated. Where two headings read alike, the source gives them in different places.

Assays:
[1] = Biodistribution in mice 60 min after i.v. injection; settings: 60 min after iv. injection
Description: (§1) Three to five mice were used for the biodistribution study of each tracer. Nonanesthetized animals were injected i.v. with tracer solution (FBnTP or FPTP, TPMP 25 μCi; MIBI 40 μCi; TPP 2 μCi, all in a volume of 0.2 mL saline) then killed by neck dislocation at 60 min after injection. The organs and tissues of interest were removed and counted by a radioactivity counter along with standards (1:1000) (LKB Wallac, 1282 Compugamma CS).

FCA-induced inflammation = test: Accumulation in FCA-induced inflammation tissue and healthy muscle; assay type: in vivo; settings: rats, 3 days after administration of FCA
Description: 0.1 ml of nitrosomethyl urea (NUM) was introduced i.p in female rats (150 g). When tumor reached an approximate size of 1 to 1.5 cm, FCA was injected (0.15 ml) to the hind limb footpad. Uptake assays were carried out 3 days thereafter. F-18-FBnTP (0.25 mCi) was injected via tail vein. Sixty minutes later tumor, inflamed tissue and healthy muscle tissue of the opposite limb (control) were collected on ice, weighed and counted in a gamma counter together with standards.
The accumulation of the novel F-18-phosphonium cations, F-18-FBnTP and F-18-fluoropropyl triphenyl phosphonium (F-18-FPTP) in comparison with F-18-FDG in FCA-induced inflammation and healthy tissue is presented in Table 2. Induction of inflammation and activity counting were carried out as described above.

prostate carcinoma = test: Tumor selectivity in orthotopic model of prostate carcinoma; assay type: in vivo; settings: nude mice, normalized to muscle
Description: Methods: 2×10^6 cells were injected, under anesthesia, into the prostate epithelial tissue of nude mice. When tumor reached an approximate size of 5 mm, uptake assays were performed as described above. Tumor selectivity of F-18-FBnTP and F-18-FDG was compared (3 mice in each group)

myocardium [2] = test: C-11-TPMP uptake kinetics in the myocardium (dog PET, LAD occlusion); assay type: in vivo
Description: We have examined the performance of C-11-triphenyl phosphonium cation (TPMP) for assessing regional myocardial flow in dog using PET (Kraus, 1994).
Methods: Four mCi of C-11-TPMP were introduced i.v., and dynamic images of increasing duration (15 sec to 20 min) were acquired over a total time of 85 min. Images were acquired on the GE 4096+ PET scanner (15 slices, 6.5 mm slice thickness). Images were reconstructed using backprojection, and corrected for attenuation. A detailed description of methods appears in Kraus, 1994.
To investigate the relationship between myocardial blood flow and C-11-TPMP uptake in the heart, the LAD was occluded and the C-11-TPMP accumulation in tissue samples compared to microsphere determined regional myocardial blood flow. A significant correlation (r=0.93, p<0.01) was found at 5 min after LAD occlusion (FIG. 12). The non-infracted/infracted myocardium ratio was 12.1±2.4.

[3] = mouse, in vivo, iv, 60 min
Description: as §1

myocardium [4] = settings: cited from earlier work; for myocardial extraction under baseline / normal flow: baseline or normal flow; for myocardial extraction at increased flow: five-fold increases in flow rate / high flow rates

Structure (SMILES)	biodistribution, blood [1]	biodistribution, brain [1]	biodistribution, heart [1]	biodistribution, kidney [1]	biodistribution, liver [1]	biodistribution, lung [1]	biodistribution, muscle [1]	biodistribution, spleen [1]	Inf/Control (FCA-induced inflammation)	accumulation, Control (healthy muscle) (FCA-induced inflammation)	accumulation, Inflammation (FCA-induced inflammation)	myocardial extraction under baseline / normal flow (myocardium [4])	myocardial extraction at increased flow (myocardium [4])	further results
OC[C@H]1OC(O)[C@H]([18F])[C@@H](O)[C@@H]1O (stereo partly drawn) [[^18F]FDG, reference compound]	–	–	–	–	–	–	–	–	2.12 ± 0.73 and 1.20 ± 0.29	0.68 ± 0.14 % ID/g tissue and 1.05 ± 0.35 % ID/g tissue	1.42 ± 0.53 % ID/g tissue and 1.20 ± 0.16 % ID/g tissue	–	–	uptake ratio of malignant-to-normal prostate tissue (prostate carcinoma): 1.25
c1ccc([P+](c2ccccc2)(c2ccccc2)c2ccccc2)cc1 [[^3H]TPP, tetraphenyl phosphonium]	–	–	–	–	–	–	–	–	–	–	–	–	–	biodistribution, blood [3]: 0.09 ± 0.02 % ID/g; biodistribution, brain [3]: 0.06 0.02 % ID/g; biodistribution, heart [3]: 20.7 ± 1.92 % ID/g; biodistribution, kidney [3]: 4.37 ± 0.66 % ID/g; biodistribution, liver [3]: 6.12 ± 1.08 % ID/g; biodistribution, lung [3]: 2.81 ± 0.41 % ID/g; biodistribution, muscle [3]: 2.22 ± 0.41 % ID/g; biodistribution, spleen [3]: 1.93 ± 0.47 % ID/g
[201Tl] [Thallium 201]	–	–	–	–	–	–	–	–	–	–	–	about 80%	about 60%	–
[99Tc].[C-]#[N+]CC(C)(C)OC.[C-]#[N+]CC(C)(C)OC.[C-]#[N+]CC(C)(C)OC.[C-]#[N+]CC(C)(C)OC.[C-]#[N+]CC(C)(C)OC.[C-]#[N+]CC(C)(C)OC [[^99mTc]MIBI, Tc-99m-sestamibii, reference compound]	0.26 ± 0.05 % ID/g	0.08 ± 0.04 % ID/g	5.08 ± 0.25 % ID/g	12.6 ± 2.57 % ID/g	5.55 ± 1.08 % ID/g	0.98 ± 0.19 % ID/g	1.56 ± 0.31 % ID/g	1.27 ± 0.33 % ID/g	–	–	–	about 60%	40%	–

More lines, main results first:

biodistribution, blood [1]	biodistribution, brain [1]	biodistribution, heart [1]	biodistribution, kidney [1]	biodistribution, liver [1]	biodistribution, lung [1]	biodistribution, muscle [1]	biodistribution, spleen [1]	Inf/Control (FCA-induced inflammation)	Structure (SMILES)	accumulation, Control (healthy muscle) (FCA-induced inflammation)	accumulation, Inflammation (FCA-induced inflammation)	myocardial extraction under baseline / normal flow (myocardium [4])	myocardial extraction at increased flow (myocardium [4])	further results
0.01 ± 0.00 % ID/g	0.03 ± 0.00 % ID/g	9.86 ± 0.82 % ID/g	5.74 ± 0.54 % ID/g	4.22 ± 1.79 % ID/g	2.02 ± 0.34 % ID/g	2.06 ± 0.53 % ID/g	1.23 ± 0.26 % ID/g	0.25 ± 0.04	[18F]CCC[P+](c1ccccc1)(c1ccccc1)c1ccccc1 [[18F]FPTP, [^18F]3-fluoropropyltriphenyl-phosphonium ion]	0.29 ± 0.06 % ID/g tissue	0.07 ± 0.01 % ID/g tissue	–	–	accumulation, Blood (FCA-induced inflammation): *0.037 ± 0.01 % ID/g tissue
0.03 ± 0.00 % ID/g	–	13.4 ± 0.95 % ID/g	3.79 ± 0.83 % ID/g	5.68 ± 0.60 % ID/g	2.20 ± 0.21 % ID/g	2.49 ± 0.35 % ID/g	1.43 ± 0.18 % ID/g	–	[11CH3][P+](c1ccccc1)(c1ccccc1)c1ccccc1 [[11C]TPMP, C-11-triphenylmethyl phosphonium]	–	–	–	–	extraction fraction in the heart (myocardium [2]; baseline conditions, flow=69 ml/min/100 g): 91%; decrease of the extraction fraction (myocardium [2]; five-fold increase in flow by adenosine): 39%
